Paper PMC6949113, “Preclinical evaluation of AT-527, a novel guanosine nucleotide prodrug with potent, pan-genotypic activity against hepatitis C virus” (PLoS ONE, 2020)
Like-named read-outs stand apart in the source and are kept apart here.

Experiments:
K562 cells [1] = assay: Mitochondrial toxicity assay (Mitochondrial ToxGlo, glucose/galactose); assay type: cell-based, human
Method: (§1) Mitochondrial toxicity assay. K562 leukemia cells (ATCC, CCL-243) seeded in 96-well plates (1x10^5 cells/well) were incubated in triplicate with test or positive control compounds in RPMI containing glucose, 10% FBS and 2 mM L-glutamine. […] Viability was compared with untreated cells to determine TC50 values. Separately, K562 cells were incubated in triplicate with test compounds in glucose-free RPMI supplemented with 10 mM galactose. Test compounds diluted in RPMI containing glucose were evaluated in parallel.

[2] = system: COX-1 protein in PC3 cells; assay: Mitobiogenesis toxicity assay, COX-1; assay type: cell-based, human; settings: 5 days, read-out: Mitogenesis IC50 COX-1
Method: (§2) Mitobiogenesis toxicity assay. […] One plate was used to measure cell viability by XTT staining. Cells in the remaining two plates were fixed with 4% paraformaldehyde for 20 min, washed thrice with DPBS, and 0.5% acetic acid added for 5 min to block endogenous alkaline phosphatase activity. Nuclear DNA encoded Complex II SDH-A mitochondrial protein and mitochondrial encoded Complex IV COX-1 protein were measured spectrophotometrically using the Abcam Mitobiogenesis ELISA kit (Cambridge, UK) per the manufacturer’s instructions.

PC3 cells = assay: PC3 cytotoxicity (XTT, 5 days); assay type: cell-based, human
Method: as §2

K562 cells [3] = assay: K562 cytotoxicity (XTT, 3 days); assay type: cell-based, human
Method: as §1

[4] = system: SDH-A protein in PC3 cells; assay: Mitobiogenesis toxicity assay, SDH-A; assay type: cell-based, human; settings: 5 days, read-out: Mitogenesis IC50 SDH-A
Method: as §2

[5] = Intracellular metabolism in mouse hepatocytes; assay type: in vitro ADME, mouse (CD1); settings: low to undetectable
Method: (§3) Hepatocytes. […] Cryopreserved male mouse (CD1), and fresh male Beagle dog and male cynomolgus monkey hepatocytes were obtained from BioreclamationIVT (Baltimore, MD) and were similarly plated with Matrigel in 6- or 24-well plates and maintained overnight in InVitroGRO™HI medium with Torpedo™ antibiotic (BioreclamationIVT). The protocol described above for measuring AT-511 and its metabolites in Huh-7 cells was repeated with the five different hepatocytes. Untreated cells were collected at 24 h, and the protein content of the cell lysates were determined using a bicinchoninic acid protein assay kit to assess the number of cells in each incubation. Separately, plated human hepatocytes were incubated for 6 h with 100 μM AT-511, followed by washout periods of 0, 2, 6, 18 and 30 h.
(§4) S3 Protocol. LC-MS/MS analysis of AT-511 and metabolites in cultured cells. The supernatant extracts of each hepatocyte and Huh-7 cell incubation were separately analyzed by four different LC-MS/MS methods for quantitation of phosphoramidates, nucleosides, monophosphates, and triphosphates (methods 1, 2, 3 and 4, respectively), using synthetic reference standards of actually and potentially present compounds and using structurally related analogs as internal standards. Briefly, a Luna PFP (2), 5 µm, 100 x 4.6 mm column and an AB Sciex API-6500 mass spectrometer (ESI positive ion, MRM mode) were used for methods 1-3 and an XBridge Oligonucleotide, BEH C18, 2.5 µm, 50 x 2.1 mm column and a Thermo QE Plus mass spectrometer (electrospray, negative ion mode) were used for method 4. For methods 1 and 2, mobile phases A (10 mM ammonium acetate in water) and B (acetonitrile:methanol, 1:1, v/v) were used to elute samples (5 µL) at 1 mL/min with 15% B for 1.5 min followed by a linear gradient to 75% B over 1 min (method 1) or with 54% B for 1.3 min followed by a linear gradient to 90% B over 1.2 min. Method 3 was the same except mobile phase A was 0.3% acetic acid in water, […] and samples were eluted with 3% B for 3 min followed by a linear gradient to 55% B over 1.2 min. For method 4, mobile phase A (3 mM ammonium formate with 10 mM dimethylhexylamine (DMHA) in water) and mobile phase B (3 mM ammonium formate with 10 mM DMHA in acetonitrile:water, 1:1, v/v) were used to elute samples at 0.4 mL/min with 0% B for 1.5 min followed by a linear gradient to 100% B over 2 min and ending with an isocratic elution for 0.5 min at 100% B.

[6] = Intracellular metabolism in dog hepatocytes; assay type: in vitro ADME, Beagle dog; settings: low to undetectable
Method: as §3, §4

Monkey PK study, plasma = assay type: in vivo, cynomolgus monkey; settings: for plasma concentration: male cynomolgus monkeys; for AUC(0-t) / Cmax / MRT last / Tmax: male, cynomolgus, cynomolgus monkey, in vivo, po
Excerpt: Monkey PK study. Male non-naïve cynomolgus monkeys were obtained from Hainan Jingang Laboratory Animal Co., Ltd. (Hainan, China), group housed during the 5-day acclimation period or individually housed during the study in stainless steel mesh cages, provided ad libitum access to RO water, fed twice daily (~120 g Certified Monkey Diet daily; Beijing Vital Keao Feed Co., Ltd., Beijing, China) and given daily treats of fresh fruit. Additional environmental enrichment included classical music and cartoons. Three groups of 5 monkeys each were administered 30, 100 or 300 mg/kg AT-527 as a powder filled in empty porcine hard gelatin capsules (size 0). The monkeys were fasted overnight prior to dosing and fed 4 h after dosing. Three dosages were selected to provide assessments of dose proportionality, the top two representing potential doses for a repeated oral dose toxicity study in monkeys, and the lowest predicted to be more therapeutically relevant. A pill gun was used to place the capsule beyond the root of the animals’ tongues and their mouths were held loosely closed for approximately 30 sec to allow them to move the jaw and swallow the capsule. Immediately following capsule administration, 20 mL of water was given by mouth and then the mouth was opened to ensure the capsule was swallowed. Blood samples (~0.6 mL) were collected up to 72 h from three animals per dose group, and up to 4 h from the remaining two animals in each group, at the same time points described for rats. […] Blood samples were collected with a syringe from a peripheral blood vessel from restrained, non-sedated animals, immediately transferred to pre-chilled tubes containing ~1 mg K2EDTA•2H20 and 20 μL of 5 mM dichlorvos solution, mixed and placed on ice until plasma was prepared by centrifugation as described for rats. Immediately after centrifugation, plasma samples were extracted with 4 volumes ISS2, and the supernatants were clarified by centrifugation (12,000 rpm, 10 min, 4°C) and stored at ≤ -60°C until analyzed by LC-MS/MS as described below. After the 4-hr blood collection, two monkeys per dose group were anesthetized with intravenous injection of pentobarbital sodium (60 mg/kg) and then euthanized as described for rats. […] All analytes were quantitated by LC-MS/MS as described below.
LC-MS/MS analysis of rat and monkey plasma and tissue homogenate supernatants. For the analysis of AT-511 in rat plasma, aliquots were extracted with 10 volumes ISS2. The supernatants were clarified by centrifugation (4000 rpm for 10 min at 4°C) and 3 μL samples were injected onto an Acuity BEH C18 1.7 μm, 2.1 × 50 mm column and a Sciex API 4000 mass spectrometer (ESI positive ion, MRM mode). Mobile phases A (0.025% formic acid (FA) and 1 mM ammonium acetate (AA) in 5% ACN in water) and B (0.025% FA and 1 mM AA in 95% ACN in water) were used to elute samples (3 μL) at 0.6 mL/min with 10% B for 0.3 min followed by linear gradients to 60% B over 0.6 min and to 90% B over 0.2 min, and ending with 90% B for 0.4 min.
PK data analysis. […] The linear/log trapezoidal rule was applied in obtaining the PK parameters.

[7] = Rat pharmacokinetic study, plasma; assay type: in vivo, Sprague-Dawley rat; settings: for plasma concentration, individual rats: AT-527 500 mg/kg oral, male 1-3, female 7-9, BQL: <0.0017 AT-511, <0.0022 M1, <0.0032 AT-273, M4
[8] = Intracellular metabolism in human hepatocytes; assay type: in vitro ADME; settings: human hepatocytes; low to undetectable
Method: as §3, §4

[9] = Homo sapiens, K562, 2 h, read-out: MF (Gal) IC50, mitochondrial function
[10] = Homo sapiens, K562, glucose-free galactose medium, 2 h, measure of necrosis, read-out: MI (Gal) IC50, cell membrane integrity
[11] = both sexes, Sprague-Dawley, rat, in vivo, po, 500 mg/kg
[12] = K562, glucose-free galactose medium, 2 h, inhibition of cellular ATP levels, read-out: MF (Gal) IC50, mitochondrial function
[13] = K562, glucose-free galactose medium, 2 h, measure of necrosis, read-out: MI (Gal) IC50, cell membrane integrity
[14] = K562 cells, glucose medium, 3 days, XTT

O=C(N[C@H](CO)[C@H](O)c1ccc([N+](=O)[O-])cc1)C(Cl)Cl [Chloramphenicol]
IC50 (K562 cells [1]; [9]): > 100 µM
IC50 (K562 cells [1]; [10]): > 100 µM
IC50 ([2]; Homo sapiens, PC-3, 120 h): 95.3 µM
Cytotoxicity TC50 (PC3 cells; human, 5 days): >100 µM
Cytotoxicity TC50 (K562 cells [3]; human, 3 days): 50.9 µM
IC50 ([4]; Homo sapiens, PC-3, 120 h): > 100 µM

CNc1nc(N)nc2c1ncn2[C@@H]1O[C@H](CO)[C@@H](O)[C@@]1(C)F [M4]
intracellular levels of nucleoside metabolites [5]: < 10 pmol/10^6 cells
intracellular levels of nucleoside metabolites [6]: < 10 pmol/10^6 cells
plasma concentration (Monkey PK study, plasma; single oral AT-527 100 mg/kg, 0.500 h, monkey 1): BQL
plasma concentration (Monkey PK study, plasma; single oral AT-527 100 mg/kg, 72.0 h, monkey 2): BQL
plasma concentration (Monkey PK study, plasma; single oral AT-527 300 mg/kg, 0.500 h, monkey 1): BQL
plasma concentration (Monkey PK study, plasma; single oral AT-527 300 mg/kg, 0.500 h, monkey 2): BQL
plasma concentration (Monkey PK study, plasma; single oral AT-527 300 mg/kg, 0.500 h, monkey 3): BQL
plasma concentration (Monkey PK study, plasma; single oral AT-527 300 mg/kg, 1.00 h, monkey 1): BQL
plasma concentration (Monkey PK study, plasma; single oral AT-527 300 mg/kg, 72.0 h, monkey 3): BQL
AUC(0-t) (Monkey PK study, plasma; 30 mg/kg): 18.2 ± 1.7 µM·h
Cmax (Monkey PK study, plasma; 30 mg/kg): 0.67 ± 0.14 µM
MRT last (Monkey PK study, plasma; 30 mg/kg): 22.4 ± 2.4 h
Tmax (Monkey PK study, plasma; 30 mg/kg): 14.7 ± 8.1 h
AUC(0-t) (Monkey PK study, plasma; 100 mg/kg): 39.2 ± 15 µM·h
Cmax (Monkey PK study, plasma; 100 mg/kg): 1.3 ± 0.49 µM
MRT last (Monkey PK study, plasma; 100 mg/kg): 22.3 ± 4.1 h
Tmax (Monkey PK study, plasma; 100 mg/kg): 15.3 ± 7.6 h
AUC(0-t) (Monkey PK study, plasma; 300 mg/kg): 53.9 ± 31.7 µM·h
Cmax (Monkey PK study, plasma; 300 mg/kg): 1.66 ± 0.49 µM
MRT last (Monkey PK study, plasma; 300 mg/kg): 26.6 ± 9.6 h
Tmax (Monkey PK study, plasma; 300 mg/kg): 17.3 ± 11.5 h
plasma concentration, individual rats ([7]; 48.0 h): BQL
plasma concentration, individual rats ([7]; 72.0 h): BQL
AUC(0-t) [7, 11]: 207 ± 56.1 µM·h
Cmax [7, 11]: 28.8 ± 8.5 µM
MRT last [7, 11]: 6.41 ± 1.06 h
intracellular levels of nucleoside metabolites [8]: < 10 pmol/10^6 cells

Nc1ccn([C@H]2CC[C@@H](CO)O2)c(=O)n1 [ddC]
IC50 (K562 cells [1]; [12]): > 20 µM
IC50 (K562 cells [1]; [13]): > 20 µM
IC50 [2]: 1.1 µM
Cytotoxicity TC50 (PC3 cells): >20 µM
Cytotoxicity TC50 (K562 cells [3]): >20 µM
IC50 [4]: > 20 µM

N#CC(C#N)=NNc1cccc(Cl)c1 [CCCP]
IC50 (K562 cells [1]; [12]): < 0.6 µM
IC50 (K562 cells [1]; [13]): 7 µM
IC50 [2]: 15.1 µM
Cytotoxicity TC50 (PC3 cells; PC3 cells, 5 days, XTT): 17.7 µM
Cytotoxicity TC50 (K562 cells [3]; [14]): 8.8 µM
IC50 [4]: 13.5 µM

C[C@@H]1CC[C@@]2(OC1)O[C@H]1[C@@H](O)[C@H]3[C@@H]4CC[C@H]5C[C@@H](O[C@@H]6O[C@H](CO)[C@H](O[C@@H]7O[C@H](CO)[C@@H](O)[C@H](O[C@@H]8OC[C@@H](O)[C@H](O)[C@H]8O)[C@H]7O[C@@H]7O[C@H](CO)[C@H](O)[C@H](O[C@@H]8O[C@H](CO)[C@@H](O)[C@H](O)[C@H]8O)[C@H]7O)[C@H](O)[C@H]6O)[C@H](O)C[C@]5(C)[C@H]4CC[C@]3(C)[C@H]1[C@@H]2C [Digitonin]
IC50 (K562 cells [1]; [9]): 27.9 µM
IC50 (K562 cells [1]; [10]): 31.9 µM
IC50 ([2]; Homo sapiens, PC-3, 120 h): 32.6 µM
Cytotoxicity TC50 (PC3 cells; PC3 cells, 5 days, XTT): 27.2 µM
Cytotoxicity TC50 (K562 cells [3]; [14]): 8.1 µM
IC50 ([4]; Homo sapiens, PC-3, 120 h): 40.7 µM
